26 compounds from ChEMBL document CHEMBL3046649, “Fungitoxic and Phytotoxic Activities of Cinnamic Acid Esters and Amides” (2000) can be followed below.

Experiment [1] deals with Brassica rapa subsp. chinensis. As to the kind of experiment: whole plant or invertebrate. The settings on record: 72 h, read-out: GI. It counts as functional.
Description: Phytotoxicity against Brassica rapa subsp. chinensis assessed as growth inhibition of hypocotyl at 100 ppm treated to seeds after 3 days
Experiment [2] relates to Pythium. Description: Fungitoxic activity against Pythium sp. assessed as mycelial growth inhibition at 10 ppm after 4 to 5 days by agar dilution method. Conditions: read-out: GI. In general terms: In agar dilution, organisms are placed on agar that contains the substance at set levels.
Experiment [3] deals with Athelia rolfsii. Description: Fungitoxic activity against Athelia rolfsii assessed as mycelial growth inhibition at 10 ppm after 4 to 5 days by agar dilution method. It counts as functional. The settings on record: Agroathelia rolfsii; read-out: GI.
Experiment [4] relates to Pythium. Description: microbe, parasite or virus in culture. It counts as functional. Conditions: read-out: GI.
Description: Fungitoxic activity against Pythium sp. assessed as mycelial growth inhibition at 100 ppm after 4 to 5 days by agar dilution method
Experiment [5] has as its system Athelia rolfsii. As to the kind of experiment: microbe, parasite or virus in culture. It counts as functional. Conditions: Agroathelia rolfsii, read-out: GI.
Description: Fungitoxic activity against Athelia rolfsii assessed as mycelial growth inhibition at 100 ppm after 4 to 5 days by agar dilution method
Experiment [6] deals with Brassica rapa subsp. chinensis. As to the kind of experiment: whole plant or invertebrate. It counts as functional. Conditions: 72 h, read-out: GI. The source holds these as a separate data set.
Description: Phytotoxicity against Brassica rapa subsp. chinensis assessed as growth inhibition of radicle at 100 ppm treated to seeds after 3 days

On to `CCCNC(=O)/C=C/c1ccc(C(C)C)cc1`, for which the inhibition of growth at 100 ppm in experiment [1] was 30%; with Pythium [4], 84%; with Athelia rolfsii [5], 88%; in experiment [6], 52%. Also, the inhibition of growth at 10 ppm with Pythium [2] came out at 41%; with Athelia rolfsii [3], 28%.

`COC(=O)/C=C/c1ccc(C(C)C)cc1`: the inhibition of growth at 100 ppm in experiment [1] stood at 38%; in the experiment with Pythium [4] it was 82%; in the experiment with Athelia rolfsii [5], 97%; in experiment [6], 21%. Further, the inhibition of growth at 10 ppm in the experiment on Pythium [2] was found to be 7%; with Athelia rolfsii [3] it was 35%.

On to `O=C(/C=C/c1ccc(Cl)cc1Cl)OCCOc1ccccc1`, for which the inhibition of growth at 100 ppm was 33% in experiment [1], 59% in the experiment on Pythium [4], 72% in the experiment on Athelia rolfsii [5] and 8% in experiment [6]. Also, the inhibition of growth at 10 ppm in the experiment on Pythium [2] and with Athelia rolfsii [3] was 14% throughout.

As to `CCCCCNC(=O)/C=C/c1ccccc1`, the inhibition of growth at 100 ppm in experiment [1] was 60%; in the experiment with Pythium [4] it was 78%; in the experiment on Athelia rolfsii [5], 87%; in experiment [6], 76%. Further, the figures for the inhibition of growth at 10 ppm in the experiment with Pythium [2] and with Athelia rolfsii [3] were 23% and 18%, respectively.

Regarding `CCc1cccc(NC(=O)/C=C/c2ccccc2)c1`, the inhibition of growth at 100 ppm in experiment [1] turned out to be 2%; in the experiment with Pythium [4], 74%; in the experiment with Athelia rolfsii [5] it was 53%; in experiment [6], 66%. In addition, the inhibition of growth at 10 ppm was found to be 31% in the experiment on Pythium [2] and 35% in the experiment with Athelia rolfsii [3].

Consider `CC(C)=CCC/C(C)=C/COC(=O)/C=C/c1ccc(C(C)C)cc1`, for which the inhibition of growth at 100 ppm in experiment [1] came out at 30%; with Pythium [4], 72%; in the experiment on Athelia rolfsii [5], 88%; in experiment [6], 0%. Further, the inhibition of growth at 10 ppm was 8% in the experiment on Pythium [2] and 21% with Athelia rolfsii [3].

Regarding `O=C(/C=C/c1ccc(Cl)cc1)OCCOc1ccccc1`, the inhibition of growth at 100 ppm in experiment [1] came out at 30%; in the experiment with Pythium [4] it was 54%; in the experiment with Athelia rolfsii [5] it was 83%; in experiment [6] it was 0%. Also, the inhibition of growth at 10 ppm in the experiment on Pythium [2] was found to be 9%; in the experiment on Athelia rolfsii [3], 16%.

As for `CC(C)=CCC/C(C)=C/COC(=O)/C=C/c1ccc(Cl)cc1`, the inhibition of growth at 100 ppm in experiment [1] was 41%; in the experiment on Pythium [4], 86%; with Athelia rolfsii [5], 94%; in experiment [6] it was 48%. Also, the inhibition of growth at 10 ppm is 9% with Pythium [2] and 17% in the experiment with Athelia rolfsii [3].

Consider `CC(C)c1ccc(/C=C/C(=O)OCCOc2ccccc2)cc1`, for which the inhibition of growth at 100 ppm in experiment [1] is 32%; in the experiment with Pythium [4], 46%; in the experiment with Athelia rolfsii [5] it was 64%; in experiment [6], 0%. Also, the inhibition of growth at 10 ppm in the experiment on Pythium [2] was 3%; with Athelia rolfsii [3] it was 8%.

For the compound `C=CCNC(=O)/C=C/c1ccccc1`, the inhibition of growth at 100 ppm in experiment [1] was 63%; in the experiment on Pythium [4] it was 52%; with Athelia rolfsii [5], 90%; in experiment [6] it was 64%. Besides, the inhibition of growth at 10 ppm in the experiment with Pythium [2] was 20%; in the experiment on Athelia rolfsii [3], 6%.

Take `CC(C)=CCCC(C)CCOC(=O)/C=C/c1ccc(Cl)cc1` (stereo unspecified) [3,7-DIMETHYLOCT-6-ENYL 3-(4-CHLOROPHENYL)ACRYLATE]: the inhibition of growth at 100 ppm in experiment [1] came to 26%; in the experiment on Pythium [4] it was 64%; with Athelia rolfsii [5] it was 83%; in experiment [6] it was 15%. The inhibition of growth at 10 ppm in the experiment on Pythium [2] is 8%; with Athelia rolfsii [3] it was 19%.

With `CC(C)=CCCC(C)CCOC(=O)/C=C/c1ccc(C(C)C)cc1` (stereo unspecified) [3,7-DIMETHYLOCT-6-ENYL 3-(4-ISOPROPYLPHENYL)ACRYLATE], the inhibition of growth at 100 ppm in experiment [1] was determined as 39%; in the experiment on Pythium [4] it was 69%; with Athelia rolfsii [5] it was 87%; in experiment [6] it was 0%. Further, the figures for the inhibition of growth at 10 ppm with Pythium [2] and in the experiment on Athelia rolfsii [3] were 12% and 9%, respectively.

As to `CC(C)CNC(=O)/C=C/c1ccc(Cl)cc1` [3-(4-CHLOROPHENYL)-N-ISOBUTYLACRYLAMIDE], the inhibition of growth at 100 ppm in experiment [1] is 43%; in the experiment with Pythium [4], 73%; in the experiment with Athelia rolfsii [5], 89%; in experiment [6], 69%. Also, the figures for the inhibition of growth at 10 ppm with Pythium [2] and in the experiment on Athelia rolfsii [3] were 50% and 33%, respectively.

On to `CC(C)NC(=O)/C=C/c1ccc(Cl)cc1` [3-(4-CHLOROPHENYL)-N-ISOPROPYLACRYLAMIDE], for which the inhibition of growth at 100 ppm came to 26% in experiment [1], 45% with Pythium [4], 94% in the experiment with Athelia rolfsii [5] and 57% in experiment [6]. The values for the inhibition of growth at 10 ppm in the experiment on Pythium [2] and with Athelia rolfsii [3] were 20% and 66%, respectively.

Turning to `CCCNC(=O)/C=C/c1ccc(Cl)cc1` [3-(4-CHLOROPHENYL)-N-PROPYLACRYLAMIDE], the inhibition of growth at 100 ppm in experiment [1] was determined as 43%; with Pythium [4], 88%; in the experiment on Athelia rolfsii [5] it was 97%; in experiment [6], 64%. Further, the values for the inhibition of growth at 10 ppm in the experiment on Pythium [2] and in the experiment on Athelia rolfsii [3] were 30% and 32%, respectively.

In the case of `C=CCc1ccc(OC(=O)/C=C/c2ccc(Cl)cc2Cl)c(OC)c1` [4-ALLYL-2-METHOXYPHENYL 3-(2,4-DICHLOROPHENYL)ACRYLATE], the inhibition of growth at 100 ppm worked out at 28% in experiment [1], 67% with Pythium [4], 87% with Athelia rolfsii [5] and 6% in experiment [6]. Moreover, the inhibition of growth at 10 ppm in the experiment on Pythium [2] came out at 23%; in the experiment with Athelia rolfsii [3], 27%.

Take `C=CCc1ccc(OC(=O)/C=C/c2ccc(Cl)cc2)c(OC)c1` [4-ALLYL-2-METHOXYPHENYL 3-(4-CHLOROPHENYL)ACRYLATE]: the inhibition of growth at 100 ppm worked out at 38% in experiment [1], 89% with Pythium [4], 89% in the experiment with Athelia rolfsii [5] and 49% in experiment [6]. Also, the inhibition of growth at 10 ppm with Pythium [2] was 8%; with Athelia rolfsii [3], 14%.

Turning to `C=CCc1ccc(OC(=O)/C=C/c2ccc(C(C)C)cc2)c(OC)c1` [4-ALLYL-2-METHOXYPHENYL 3-(4-ISOPROPYLPHENYL)ACRYLATE], the inhibition of growth at 100 ppm was found to be 40% in experiment [1], 62% in the experiment on Pythium [4], 86% in the experiment with Athelia rolfsii [5] and 0% in experiment [6]. For the same compound, the inhibition of growth at 10 ppm in the experiment with Pythium [2] and in the experiment with Athelia rolfsii [3] was 8% throughout.

Turning to `CCOC(=O)/C=C/c1ccc(Cl)cc1Cl` [ETHYL 3-(2,4-DICHLOROPHENYL)ACRYLATE], the inhibition of growth at 100 ppm was 54% in experiment [1], 76% in the experiment on Pythium [4], 93% in the experiment with Athelia rolfsii [5] and 29% in experiment [6]. In addition, the inhibition of growth at 10 ppm came out at 19% with Pythium [2] and 32% with Athelia rolfsii [3].

`CCOC(=O)/C=C/c1ccc(Cl)cc1` [ETHYL 3-(4-CHLOROPHENYL)ACRYLATE]: the inhibition of growth at 100 ppm is 43% in experiment [1], 99% in the experiment with Pythium [4], 97% with Athelia rolfsii [5] and 47% in experiment [6]. In addition, the figures for the inhibition of growth at 10 ppm in the experiment with Pythium [2] and in the experiment on Athelia rolfsii [3] were 8% and 19%, respectively.

In the case of `CCOC(=O)/C=C/c1ccc(C(C)C)cc1` [ETHYL 3-(4-ISOPROPYLPHENYL)ACRYLATE], the inhibition of growth at 100 ppm in experiment [1] was found to be 44%; with Pythium [4], 92%; with Athelia rolfsii [5], 78%; in experiment [6], 0%. In addition, the results for the inhibition of growth at 10 ppm with Pythium [2] and in the experiment with Athelia rolfsii [3] were 14% and 24%, respectively.

As for `CCOC(=O)/C=C/c1ccccc1` [ETHYL CINNAMATE], the inhibition of growth at 100 ppm in experiment [1] worked out at 26%; in the experiment on Pythium [4], 57%; in the experiment on Athelia rolfsii [5], 63%; in experiment [6] it was 0%. Moreover, the inhibition of growth at 10 ppm in the experiment on Pythium [2] stood at 14%; in the experiment with Athelia rolfsii [3], 36%.

Turning to `CC(C)OC(=O)/C=C/c1ccc(Cl)cc1Cl` [ISOPROPYL 3-(2,4-DICHLOROPHENYL)ACRYLATE], the inhibition of growth at 100 ppm in experiment [1] worked out at 42%; in the experiment with Pythium [4] it was 71%; in the experiment with Athelia rolfsii [5], 93%; in experiment [6] it was 54%. Further, the inhibition of growth at 10 ppm amounted to 20% in the experiment with Pythium [2] and 50% in the experiment on Athelia rolfsii [3].

For `CC(C)OC(=O)/C=C/c1ccc(Cl)cc1` [ISOPROPYL 3-(4-CHLOROPHENYL)ACRYLATE], the inhibition of growth at 100 ppm was 18% in experiment [1], 86% with Pythium [4], 99% in the experiment with Athelia rolfsii [5] and 0% in experiment [6]. Also, the inhibition of growth at 10 ppm in the experiment on Pythium [2] came to 7%; with Athelia rolfsii [3], 34%.

In the case of `CC(C)OC(=O)/C=C/c1ccc(C(C)C)cc1` [ISOPROPYL 3-(4-ISOPROPYLPHENYL)ACRYLATE], the inhibition of growth at 100 ppm in experiment [1] was found to be 18%; in the experiment with Pythium [4], 70%; in the experiment on Athelia rolfsii [5], 92%; in experiment [6], 0%. Also, the inhibition of growth at 10 ppm in the experiment with Pythium [2] was found to be 21%; with Athelia rolfsii [3], 42%.

Take `CC(C)OC(=O)/C=C/c1ccccc1` [ISOPROPYL CINNAMATE]: the inhibition of growth at 100 ppm in experiment [1] was 2%; in the experiment with Pythium [4], 82%; in the experiment on Athelia rolfsii [5] it was 86%; in experiment [6], 2%. Besides, the inhibition of growth at 10 ppm worked out at 5% with Pythium [2] and 41% with Athelia rolfsii [3].
